Laboratory results: patent US20240376154A1, “BIS-INTERCALATING PEPTIDES, CONJUGATES AND METHODS OF USE” (ZYMEWORKS BC INC., priority 2023, published 2024)
Like-named read-outs stand apart in the source and are kept apart here.

How the values were obtained:
[1] = amide bond, 32-membered ring
[2] = system: tumour cells (at least 4 of a panel of ovarian, breast, lung, pancreatic, placenta, colon cell lines); test: In vitro cytotoxicity (cell proliferation, CellTiter-Glo), average over tumour cell line panel; format: cell-based; conditions: for pIC50 (average): average pIC50 on all cell lines tested, 5 nights incubation, CellTiter-Glo
Method in brief: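 Each cell line seeded at ~1000 cells/well and left to adhere overnight, then given a 10-point 1:3 compound titration for 5 nights at 37° C, 5% CO2. Viability read by CellTiter-Glo luminescence; IC50 per line, reported as pIC50 averaged across at least 4 lines.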

herring sperm DNA = test: DNA melting temperature by differential scanning calorimetry (DSC); format: binding; conditions: DSC; herring sperm DNA; DNA melting temperature = 68° C.
Method in brief: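 Herring sperm DNA at 1 mg/mL (1.4 mM base pair) in BPE buffer, pH 7.0, equilibrated with test article (10 mM DMSO stock) for >3 h, insolubles removed by centrifugation. Scanned 25 to 110° C. at 1° C./min; melting temperature taken from the DSC melting curve.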

[3] = Lipophilicity by experimental HPLC retention time; format: physicochemical; conditions: HPLC retention time as measure of lipophilicity; C18, 10 to 90% CH3CN/H2O with 0.1% FA over 25 min
Method in brief: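 Reversed-phase HPLC with diode array detection on a Kinetex EVO C18 150×4.6, 2.6 μm column. Gradient 10 to 90% CH3CN/H2O with 0.1% FA over 25 min; retention time serves as the lipophilicity measure.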

[4] = system: IGROV-1 (Ovarian Adenocarcinoma); test: Cell proliferation assay, IGROV-1; format: cell-based; conditions: 5 nights
Protocol: (§1) The ability of Compound 419 and Compound 424 to inhibit proliferation of tumour cells in vitro was measured by a cell proliferation assay using the following tumour cell lines: IGROV-1 (Ovarian Adenocarcinoma, NCI), JEG-3 (Placental Choriocarcinoma, AddexBio (C0030003)) and OVKATE (Ovarian Adenocarcinoma, Japanese Collection of Research Bioresources (JCRB) (JCRB1044)).
(§2) Cell lines were cultured as per vendor instructions prior to running the cell proliferation assay. Briefly, on the day prior to adding compound, cells (50 μL/well, 1000 cells/well) were added to sterile, tissue culture (TC)-treated, 384-well plates (ThermoFisher Scientific, Catalogue #164610) and incubated overnight at 37° C./5% CO2 to allow the cells to adhere to the plate surface. The next day, in a sterile, V-bottom, 96-well plate, compounds were titrated 1:3 in complete growth medium, creating a 10-point dose response titration with compounds at 3.5-times the desired final concentration. Control wells with no compound (growth medium only) were included for each compound titration in 96-well dilution plates. 20 uL from the 10-point dose response titration were added to the 384-well plate containing the seeded cells, in duplicate. Plates were incubated at 37° C./5% CO2 for 5 nights. After 5-night incubation, cell viability was quantified by the addition of 15 uL/well of CellTiter-Glo® (Promega, Catalogue #G7572) and incubation at room temperature for 30 minutes. After 30-minute incubation, luminescence was measured using a microplate luminometer (BioTek® Synergy™ H1 Microplate Reader). The resulting relative light units (RLU values) were converted to % cytotoxicity using the growth medium only control wells mentioned above:
(§3) Data was fit into 4-parameter logistic to curves using non-linear regression methods available with GraphPad Prism software (GraphPad Software, Inc.).

[5] = system: JEG-3 (Placental Choriocarcinoma); test: Cell proliferation assay, JEG-3; format: cell-based; conditions: 5 nights
Protocol: as §1, §2, §3

[6] = system: OVKATE (Ovarian Adenocarcinoma); test: Cell proliferation assay, OVKATE; format: cell-based; conditions: 5 nights
Protocol: as §1, §2, §3

[7] = Stability in female mouse plasma; format: in vitro ADME; conditions: 37° C., 24 h
Protocol: The stability of exemplary compounds of general Formula I in mouse plasma was evaluated as follows.
Compounds were incubated at 1 μM in duplicate in female mouse plasma, 250 μL final volume, at 37° C. for 24 h. Aliquots were sampled at 0, 15, 30, 60, 120, 240, 480 and 1440 min. Proteins were precipitated by addition of 5 volumes of cold methanol. After centrifugation 10000×g for 10 min, the residual concentration of compound in the supernatant was measured using an appropriate LC-MS/MS method. The measured concentrations were expressed as a function of time through a one-phase decay exponential regression calculated using GraphPad Prism software (GraphPad Software, Inc.) to generate the plasma half-life for each compound.

[8] = system: biotinylated hairpin DNA sequence 5'-GCATGCTTTTGCATGC; test: DNA binding by surface plasmon resonance (SPR)
Protocol: Representative compounds prepared as described in Example 2 were assessed in two complementary DNA-binding assays. Increased melting temperature of herring sperm DNA was measured using differential scanning calorimetry (DSC) and binding kinetics were determined by surface plasmon resonance (SPR) using a short DNA hairpin sequence.
SPR experiments were conducted at 25° C. using a Biacore™ T200 instrument and SA-Biotin chip. PBST Buffer: Gibco PBS, pH 7.4 was modified with Tween®20 (0.01%) and DMSO (2%). Immobilization: a short biotinylated hairpin DNA sequence 5′-GCATGCTTTTGCATGC (5′ biotin) (SEQ ID NO: 1) that contains two known sandramycin binding segments (in bold) was heated to 90° C., cooled to RT then immobilized to 700 RU. Bis-intercalating peptides at concentrations of 5, 2.5, 1.25, 0.625, and 0.312 μM in PBST were flowed over the chip at 20 μL/min with an association time of 600 s followed by dissociation for 600 s. Reference cell values were subtracted and binding constants ka, kd, and KD were determined using Biacore™ T200 Evaluation Software, version 3.0.

| Molecule | ring closure, yield after HPLC [1] [%] | pIC50 (average) [2] | HPLC [3] [min] | EC50 [4] [nM] | EC50 [5] [nM] | EC50 [6] [nM] | further results |
| --- | --- | --- | --- | --- | --- | --- | --- |
| Tert-butyl (4-nitrobenzyl) ((7R,10aS,22aS,29R,32aS,44aS)-18,40-dimethyl-6,16,19,22,28,32,38,41,44-nonaoxodotetracontahydro-6H-tetrapyrido[2,1-b1: 2′,1′-c: 2″,1″-1:2′″,1′″-s][1]oxa[4,7,10,13,17,20,23,26,29]nonaazacyclodotriacontine-7,29-diyl)dicarbamate | 23 |  |  |  |  |  |  |
| Benzyl tert-butyl ((7R,11S,19aS,26R,30S,38aS)-11,30-diisopropyl-15,34-dimethyl-6,10,13,16,19,25,29,32,35,38-decaoxohexatriacontahydro-2H,6H-dipyrido[1,2-a:1′,2′-q][1,4,7,10,13,17,20,23,26,29]decaazacyclodotriacontine-7,26-diyl)dicarbamate | 20 |  |  |  |  |  |  |
| CC(C)[C@H]1C(=O)OC[C@@H](NC(=O)c2nc3ccccc3cc2O)C(=O)N2CCCC[C@H]2C(=O)NCC(=O)N(C)CC(=O)N(C)[C@@H](C(C)C)C(=O)OC[C@@H](NC(=O)c2nc3ccccc3cc2O)C(=O)N2CCCC[C@H]2C(=O)NCC(=O)N(C)CC(=O)N1C [Sandramycin, N,N′-((7R,11S,19aS,26R,30S,38aS)-11,30-diisopropyl-12,15,31,34-tetramethyl-6,10,13,16,19,25,29,32,35,38-decaoxodotriacontahydro-2H,6H,10H,25H-dipyrido[2,1-b1:2′,1′-l][1,17]dioxa[4,7,10,13,20,23,26,29]octaazacyclodotriacontine-7,26-diyl)bis(3-hydroxyquinoline-2-carboxamide), reference compound] |  | 9.0 | 21.6 | 1.6 | 3.3 | 0.8 | DNA melt (° C.) (herring sperm DNA): 102 °C; half-life at 1 μM ([7]; female, mouse, plasma): 5.9 h |
| C[C@H]1NC(=O)[C@@H]2CCCCN2C(=O)CN(C)C(=O)CNC(=O)[C@@H]2CCCCN2C(=O)[C@H](NC(=O)c2nc3ccccc3cc2O)[C@@H](C)NC(=O)[C@@H]2CCCCN2C(=O)CN(C)C(=O)CNC(=O)[C@@H]2CCCCN2C(=O)[C@@H]1NC(=O)c1nc2ccccc2cc1O [Quinaldopeptin, quinaldopeptin, reference compound] |  | 8.0 | 16.7 | 6.5 | 9.8 | 14.8 | plasma stability (in words) ([7]; 1 μM): stability over the course of the experiment |
| CCCN1CC(=O)N(C)[C@@H](C(C)C)C(=O)NC[C@@H](NC(=O)c2nc3ccccc3cc2O)C(=O)N2CCCC[C@H]2C(=O)NCC(=O)N(CCC)CC(=O)N(C)[C@@H](C(C)C)C(=O)NC[C@@H](NC(=O)c2nc3ccccc3cc2O)C(=O)N2CCCC[C@H]2C(=O)NCC1=O [Compound 419, N,N′-((7R,11S,19aS,26R,30S,38aS)-11,30-diisopropyl-12,31-dimethyl-6,10,13,16,19,25,29,32,35,38-decaoxo-15,34-dipropylhexatriacontahydro-2H,6H-dipyrido[1,2-a:1′,2′-q][1,4,7,10,13,17,20,23,26,29]decaazacyclodotriacontine-7,26-diyl)bis(3-hydroxyquinoline-2-carboxamide)] |  |  |  | 11.5 | 6.9 | 24.1 |  |
| CC(C)[C@H]1C(=O)NC[C@@H](NC(=O)c2nc3ccccc3cc2O)C(=O)N2CCCC[C@H]2C(=O)NCC(=O)N(C(C)C)CC(=O)N(C)[C@@H](C(C)C)C(=O)NC[C@@H](NC(=O)c2nc3ccccc3cc2O)C(=O)N2CCCC[C@H]2C(=O)NCC(=O)N(C(C)C)CC(=O)N1C [Compound 424, N,N′-((7R,11S,19aS,26R,30S,38aS)-11,15,30,34-tetraisopropyl-12,31-dimethyl-6,10,13,16,19,25,29,32,35,38-decaoxohexatriacontahydro-2H,6H-dipyrido[1,2-a:1′,2′-q][1,4,7,10,13,17,20,23,26,29]decaazacyclodotriacontine-7,26-diyl)bis(3-hydroxyquinoline-2-carboxamide)] |  |  |  | 54 | 55.7 |  |  |
| CC(C)[C@H]1C(=O)NCC(=O)N(C)CC(=O)N2CCCC[C@H]2C(=O)NC[C@@H](NC(=O)c2nc3ccccc3cc2O)C(=O)N(C)[C@@H](C(C)C)C(=O)NCC(=O)N(C)CC(=O)N2CCCC[C@H]2C(=O)NC[C@@H](NC(=O)c2nc3ccccc3cc2O)C(=O)N1C [Compound 414, N,N′-((13S,16R,19aS,32S,35R,38aS)-13,32-diisopropyl-8,14,27,33-tetramethyl-6,9,12,15,19,25,28,31,34,38-decaoxohexatriacontahydro-2H,6H-dipyrido[2,1-c: 2′,1′-s][1,4,7,10,13,17,20,23,26,29]decaazacyclodotriacontine-16,35-diyl)bis(3-hydroxyquinoline-2-carboxamide)] |  | inactive | 16.8 |  |  |  | activity in cell assays (in words) [2]: inactive; DNA binding via SPR (in words) [8]: non-binding; KD (mM) ([8]; SPR, 25° C., hairpin DNA): none |
| Benzyl N-[(3R,7S,20S,27R,31S,44S)-27-[(tert-butoxycarbonyl)amino]-15,39-dimethyl-2,6,13,16,19,26,30,37,40,43-decaoxo-1,5,12,15,18,25,29,36,39,42-decaazapentacyclo[42.4.0.0^7,12.0^20,25.0^31,36]octatetracontan-3-yl]carbamate | 40 |  |  |  |  |  |  |
| (7R,11S,19aS,26R,38aS)-26-(((benzyloxy)carbonyl)amino)-11-isopropyl-12,15,30,30,31,34-hexamethyl-6,10,13,16,19,25,29,32,35,38-decaoxohexatriacontahydro-2H,6H-dipyrido[1,2-a:1′,2′-q][1,4,7,10,13,17,20,23,26,29]decaazacyclodotriacontin-7-aminium trifluoroacetate |  |  |  |  |  |  | ring closure, yield after HPLC ([1]; 2 steps): 45% |
